The series is described as follows: Human HepG2 cell viability assay in 384 well format. Conditions: HepG2 cells, read-out: Inhibition. Details: dose 125 nL, time 70.5 hour; cytotoxicity at 70.5 h: concentration not given beside the values. It counts as toxicity, cell-based.
As to `CS(=O)(=O)N1CC[C@]2(C[C@H](Oc3ccccn3)CO2)C1`, the cytotoxicity at 70.5 h is -7.19%.
For the compound `CCN1CCN(CCNC(=O)c2ccn(-c3ccc(F)cc3)n2)CC1`, the cytotoxicity at 70.5 h was -3.79%.
As for `N#Cc1ccc(CNC(=O)NCCNC(=O)C2CCCC2)c(F)c1`, the cytotoxicity at 70.5 h was 13.4%.
In the case of `CNC(=O)c1ccc(C(=O)N2CCCC(n3cc(C)cn3)C2)cn1` (centres undefined), the cytotoxicity at 70.5 h stood at 40.9%.
With `COc1cc(C(=O)N(C2CC2)C2CC(=O)NC2=O)ccc1C` (centres undefined), the cytotoxicity at 70.5 h was -0.747%.
Consider `O=C1NCC(CN2CCc3onc(-c4ccc(C(F)(F)F)cc4)c3C2)O1` (centres undefined), for which the cytotoxicity at 70.5 h is -17.3%.
As to `Nc1nc2c(c(=O)[nH]1)CCN(C(=O)c1cccc3nccnc13)C2`, the cytotoxicity at 70.5 h was -13.2%.
With `N#CCCN(Cc1ccccn1)Cn1cc(Cl)cn1` the figure was 29.9%; with `CN(C)S(=O)(=O)N1CCN(C(=O)c2ccc3ccn(C)c3c2)CC1`, -7.35%; with `CCn1cc(Cl)c(C(=O)NCCCO)n1`, -3.76%.
With `CNCC(=O)N1CCCC1c1cncc(Oc2ccc(F)cc2)n1` (centres undefined) the figure was -2.91%.
For `CCc1cnc2c(c1Nc1ccc(C)c(F)c1)c(=O)n(C)c(=O)n2C`, the cytotoxicity at 70.5 h is -8.17%.
As for `Nc1cc2c(nn1)CCN(C(=O)CC1CCCCC1)C2`, the cytotoxicity at 70.5 h was -8.85%.
Turning to `CCc1noc(CCCC(=O)Nc2cc(C(F)(F)F)c[nH]c2=O)n1`, the cytotoxicity at 70.5 h came out at 0.169%.
With `CS(=O)(=O)Cc1nc(CN2CC=C(c3ccccc3)CC2)cs1` the figure was -10.5%; with `N#Cc1ccc(CC(=O)N2CCCC(n3cccn3)C2)cc1` (centres undefined), -5.65%.
`NC(=O)COc1ccc(CNCc2ccc(F)cc2)cc1`: the cytotoxicity at 70.5 h was -4.15%.
For `CCCn1nc2c(cc1=O)CN(Cc1cc(C)no1)CC2`, the cytotoxicity at 70.5 h is -8.28%.
On to `Cc1ccccc1OCCC(=O)OC(C)C(=O)Nc1sccc1C(N)=O` (centres undefined), for which the cytotoxicity at 70.5 h is -7.64%.
With `COc1ccc(C(=O)N2CCCS2(=O)=O)cc1OC` the figure was -1.63%.
As for `OC1CCN(c2nc(-c3ccccc3)no2)CC1`, the cytotoxicity at 70.5 h was -11.6%.
With `O=C(NCc1nn(-c2ccccc2)c2c1CCC2)C1CC1` the figure was -3.11%; with `O=C(Cc1ccc2c(c1)OCO2)N1CCN(c2cnccn2)CC1`, -8.46%.
`CC(=O)N1CCCN(C(=O)CN(C)c2ccc(Cl)cn2)CC1`: the cytotoxicity at 70.5 h was found to be 10.7%.
In the case of `CCCc1nc(N(C)Cc2cnc(NC)nc2)c2cnn(C)c2n1`, the cytotoxicity at 70.5 h is 8.94%.
For the compound `CN1CCC(N(Cc2ccccc2F)C(=O)NCc2ccncc2)CC1`, the cytotoxicity at 70.5 h stood at 30.5%.
The value for `Cc1nccc(N2C[C@H](NC(=O)CNS(C)(=O)=O)[C@@H](C3CC3)C2)n1` was -5%; that for `O=C(C[S+]([O-])Cc1c(F)cccc1Cl)N1CCc2sccc2C1` (centres undefined) was -6.1%; that for `CCCS(=O)(=O)N1CCC2(CCCN(c3ncc(F)cn3)C2)C1` (centres undefined) was -6.01%.
As for `Nc1cccnc1N1CCC(C(F)(F)F)CC1`, the cytotoxicity at 70.5 h stood at 14.9%.
With `OCCN1CCN(Cc2coc(-c3cccc(F)c3)n2)CC1` the figure was -7.98%; with `COc1ccccc1C(=O)NCCCN1CCCC1C(=O)N(C)C` (centres undefined), -14.3%.
For `Cc1noc(C)c1CCC(=O)N1CCCN(Cc2cscn2)CC1`, the cytotoxicity at 70.5 h was -2.08%.
As to `COCCN(C)C(=O)c1ccc(OC)cc1O`, the cytotoxicity at 70.5 h is -2.43%.
`COc1ccc(S(=O)(=O)N2CCC[C@@H]3CN(C(=O)C4CC4)C[C@@H]32)cc1`: the cytotoxicity at 70.5 h came out at 50%.
As for `O=C1NCCC12CN(CC1CC1)CC21CCNCC1` (centres undefined), the cytotoxicity at 70.5 h was -6.52%.
In the case of `O=C(c1sccc1Cl)N1CCC(Cn2cc(CO)nn2)CC1`, the cytotoxicity at 70.5 h is -4.2%.
As for `CCN(Cc1c(F)cccc1F)Cn1nc(C)c2c(C)onc2c1=O`, the cytotoxicity at 70.5 h is 2.01%.
On to `CN1CCOCC2(CCCN(C(=O)c3cn(C)cn3)C2)C1` (centres undefined), for which the cytotoxicity at 70.5 h is 0.515%.
The value for `CCc1nccn1-c1cncc(C2CCN(C(=O)COC)CC2)n1` was -6.24%; that for `COc1ccc(CC(=O)N2CCC(c3nncn3C)CC2)cc1F` was -10.5%; that for `Cn1c(CN2CCOC(CNc3cccnn3)C2)nnc1C1CC1` (centres undefined) was -2.31%.
As to `COCCN(C)C[C@@H]1CN(c2nnc(C(C)C)s2)C[C@@H]1CO`, the cytotoxicity at 70.5 h is -9.43%.
With `CCCC1CCCN(C(=O)Nc2cccnc2OC)CC1` (centres undefined), the cytotoxicity at 70.5 h worked out at 19.4%.
With `Cc1noc(C)c1CN1CC[C@@H]2O[C@H](COCC(C)C)CC[C@@H]21`, the cytotoxicity at 70.5 h was -3.29%.
As for `CCS(=O)(=O)N1CCC(Nc2ccc(C#N)cc2F)CC1`, the cytotoxicity at 70.5 h is -10.9%.
As for `O=C(NC1CC1)C1(Cc2cc(-c3ccc(F)cc3F)no2)CCOCC1`, the cytotoxicity at 70.5 h came out at 0.221%.
With `Cc1ccc([C@]2(O)CC[C@H]3CN(Cc4ccc(Cl)cc4Cl)C[C@H]32)nc1` the figure was 27.6%; with `CC(c1ccco1)N(C)Cc1cccc(C(=O)Nc2nccn2C)c1` (centres undefined), -5.04%; with `COCCC(=O)N1CCC2(COCc3cnc(-c4cccnc4)nc32)C1` (centres undefined), -6.92%.
With `CC(C)(C)C(=O)NCc1cnn2ccccc12` the figure was -6.45%; with `O=C(C1CCOC1)N1CCC2(CC1)COCCN(Cc1ccncc1)C2` (centres undefined), -11.2%; with `Cn1cc(C(=O)N2C[C@@H]3COC[C@]3(COCc3cccnc3)C2)cn1`, -12.3%.
For `CC(NC(=O)CCn1cccn1)c1cccs1` (centres undefined), the cytotoxicity at 70.5 h is -0.167%.
Turning to `Cc1cc(C)c2nc(CN3CCC(CN)C3)cc(O)c2c1` (centres undefined), the cytotoxicity at 70.5 h is 6.13%.
For the compound `CCCc1cc(N(CCOC)CC(F)F)n2ncnc2n1`, the cytotoxicity at 70.5 h was 18.6%.
Take `CC(C)(C)c1ccc(C(=O)C2CCCN(C(=O)CNS(C)(=O)=O)C2)cc1` (centres undefined): the cytotoxicity at 70.5 h is 23.1%.
In the case of `Nc1nc2c(c(N3CCSCC3)n1)CCN(Cc1ccccn1)CC2`, the cytotoxicity at 70.5 h was -2.53%.
On to `CN1CCC(NCC(O)c2cccc(OCc3ccccc3)c2)CC1` (centres undefined), for which the cytotoxicity at 70.5 h was 4.18%.
With `CC(=O)Nc1ccc(CNCc2ccc(CS(C)(=O)=O)cc2)cc1` the figure was 15.3%; with `Cc1ccc(CNC(=O)CN2CCCC(Cn3cncn3)C2)cc1` (centres undefined), -2.99%.
The value for `CN(C)S(=O)(=O)N1CCC2(CCCN(Cc3ccc(F)cc3)C2=O)C1` (centres undefined) was -2.15%; that for `Cc1ccc(F)cc1-c1ccc(N)nc1` was 15.8%.
Take `CCc1nc(C)cc(N2CCCC(C(=O)c3ccc(OC)cc3C)C2)n1` (centres undefined): the cytotoxicity at 70.5 h amounted to 6.28%.
Take `O=C(c1csc(-c2nnc[nH]2)n1)N1CCCCC1Cn1cccn1` (centres undefined): the cytotoxicity at 70.5 h amounted to 1.45%.
Turning to `Cc1cc(N2CCC(NC(=O)C3CC3)CC2)nc(-c2ccncc2)n1`, the cytotoxicity at 70.5 h is -5.8%.
The value for `CCC(=O)N(C)C1CCN(Cc2ncc(C)c(OC)c2C)CC1` was -17.3%; that for `CC(C)c1nnc2n1CCN(C(=O)c1ccc(Cn3cccc3)cc1)C2` was -7.11%; that for `CC(=O)c1ccc(CNC(=O)c2c(C)cc(C)cc2C)nc1C` was 3.34%.
With `NS(=O)(=O)CCCNC(=O)c1cnc(-c2ccsc2)s1`, the cytotoxicity at 70.5 h is -6.58%.
Consider `CNc1cc(N2CCCC2CNCc2cccs2)ncn1` (centres undefined), for which the cytotoxicity at 70.5 h is -1.51%.
With `Cc1cnn(CC2CCCN2C(=O)Cc2cccs2)c1` (centres undefined) the figure was -8.39%; with `Cc1nccc(-c2cccc(NCc3nc(C(C)C)no3)c2)n1`, -10.6%; with `COCCN1CCN(CCS(=O)(=O)c2cccc(OC)c2)CC1`, -2.71%.
With `CC(C)c1ccc(-c2nonc2N)cc1`, the cytotoxicity at 70.5 h is 1.97%.
For the compound `O=C(c1ccnnc1)N1CCO[C@H]2[C@H](Oc3cccnc3)CC[C@@H]21`, the cytotoxicity at 70.5 h was -13.8%.
Take `O=C([C@H]1CCS(=O)(=O)[C@@H]2CN(Cc3ccc(F)cc3)C[C@H]12)N1CCCC1`: the cytotoxicity at 70.5 h was -4.67%.
Consider `CN(C)CCNC(=O)c1cnc2c(c1)nc(-c1ccccc1Cl)n2C`, for which the cytotoxicity at 70.5 h was -10.7%.
As to `O=C(C1CCOCC1)N1CCOC(CC2CCCCC2)C1` (centres undefined), the cytotoxicity at 70.5 h is -8.55%.
Turning to `CC(C(=O)N1CCOCC1)S(=O)(=O)Cc1noc(C(C)(C)C)n1` (centres undefined), the cytotoxicity at 70.5 h was determined as 7.07%.
On to `CN(CCCO)c1nc(-c2ccc(C(N)=O)cc2)nc2c1CCNC2`, for which the cytotoxicity at 70.5 h was -13.3%.
In the case of `O=C(C[C@H]1[C@H]2CN(C(=O)CO)C[C@@H]12)Nc1cccnc1`, the cytotoxicity at 70.5 h is 0.591%.
With `CS(=O)(=O)CCCNC1(c2cccc(F)c2)CC1` the figure was -7.6%; with `Cn1cc(NCCOc2ccc(F)cc2)cn1`, -5.12%; with `COc1ccc(CC2CN(C(=O)c3coc(C)n3)CCO2)cc1` (centres undefined), -9.96%.
Consider `Cc1cnn(C2CCCN(C(=O)CCNS(C)(=O)=O)C2)c1` (centres undefined), for which the cytotoxicity at 70.5 h came to 24.7%.
The value for `Cc1ccc(CN2Cc3nnn(C)c3C(COCC3CC3)C2)o1` (centres undefined) was -5.52%; that for `Cc1nnc(SCCNC(=O)c2cc(S(N)(=O)=O)ccc2F)s1` was -5.1%.
In the case of `O=C(Cc1ccccc1)NCc1ccc(-c2ccccc2C(=O)O)cn1`, the cytotoxicity at 70.5 h is 1.3%.
The value for `Cc1nc(C(C)NCc2cc(O)c3cccc(F)c3n2)cs1` (centres undefined) was -6.76%.
With `Cn1ccnc1CN1CCCCC1Cn1cccn1` (centres undefined) the figure was 11%; with `CCc1n[nH]c(C2CN(Cc3nccn3CC)CCO2)n1` (centres undefined), 22.2%.
For `Cc1ccc(CN2CCC3(CCN(S(=O)(=O)c4ccccc4)C3)C2)o1` (centres undefined), the cytotoxicity at 70.5 h came to 27.1%.
Regarding `CCCNC(=O)c1cc(C2CCCN(Cc3ccccn3)C2)no1` (centres undefined), the cytotoxicity at 70.5 h worked out at 21.2%.
With `COc1c(CNCc2nnc3n2CCCCC3)c(C(C)C)nn1C` the figure was -4.88%; with `CC(C)NC(=O)N1CCCC2(CC(C(=O)Nc3ccccc3)=NO2)C1` (centres undefined), 16.9%; with `CS(=O)(=O)NC[C@]12COC[C@H]1CN(C(=O)c1ncccn1)C2`, 17.4%.
With `Cc1ncnc2c1CCN(C(=O)Cc1ccccn1)CC2` the figure was -12.9%; with `O=C(NCCn1cccc1)C(c1ccccc1)N1CCCC1` (centres undefined), 1.81%.

(Values after ChEMBL document CHEMBL3507680, “University of Dundee, Gates Library screen for HepG2 cell viability”.)
